Measured values taken from patent US10570117B2, “Phenylimidazole compound” (Otsuka Pharmaceutical Factory, Inc., priority 2015, dated 2020).
≈ marks a conversion by molar mass, not a printed value. Read-outs that look alike come from different tables or passages of the source.

Assays:
[1] = tested on: lipoprotein lipase (LPL) gene; assay: LPL mRNA elevating action (RT-PCR quantification of LPL mRNA in C2Cl2 cells); format: cell-based, mouse; conditions: Mus musculus, 24 h, compound 10 μM, ratio relative to the amount of LPL mRNA in cells with DMSO only, read-out: Rate of increase in LPL mRNA
Summary of the method: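 Mouse striated-muscle C2Cl2 cells in DMEM with 10% FBS exposed to compounds at 10 μM for 24 h. LPL mRNA quantified by RT-PCR and real-time PCR (20 cycles), expressed as ratio to DMSO-only cells set at 1.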

[2] = Solubility in gastric juice or intestinal juice model fluid (precipitation method using DMSO); format: physicochemical; conditions: room temperature
Summary of the method: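 Compound in DMSO added to JP disintegration test fluid 1 (pH 1.2) or fluid 2 (pH 6.8) and shaken 24 h at room temperature. After filtration, dissolved concentration (μg/mL) determined by UV absorbance against compound calibration curves.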

[3] = pH 1.2, simulated gastric fluid, kinetic from dmso stock, 1st fluid for Disintegration Test of Japanese Pharmacopoeia (pH: 1.2), read-out: Solubility (μg/mL) 1st fluid
[4] = pH 6.8, kinetic from dmso stock, 2nd fluid for Disintegration Test of Japanese Pharmacopoeia (pH: 6.8), read-out: Solubility (μg/mL) 2nd fluid

Row | SMILES | solubility at 24 h [2, 3] [µg/mL] | solubility at 24 h [2, 4] [µg/mL] | melting point | fold induction at 10 µM [1]
1 | COc1cc(OCc2ncccc2C(F)(F)F)ccc1-c1c[nH]c(-c2ccc(Cl)nc2)n1 [Example 43] | 16.2 (≈ 35.2 µM) | 3.4 (≈ 7.38 µM) | 185 to 187 °C | 3.48
2 | COc1cc(OCc2ccncn2)ccc1-c1c[nH]c(-c2ccc(Cl)nc2)n1 [Example 45] | 27.8 (≈ 70.6 µM) | < 0.3 | 221 to 224 °C | 1.09
3 | COc1cc(OCc2ccc(C(F)(F)F)nc2)ccc1-c1nc(-c2ccc(Cl)nc2)[nH]c1C [Example 49] | 8.7 (≈ 18.3 µM) | 0.9 (≈ 1.9 µM) | 196 to 199 °C | 3.46
4 | COc1cc(OCc2cccc(C#N)n2)ccc1-c1c[nH]c(C2CCCCC2)n1 [Example 55] | > 78 | 2.3 (≈ 5.92 µM) | 182 to 187 °C | 4.24
5 | COc1cc(-c2c[nH]c(-c3ccc(Cl)nc3)n2)c(OC)cc1OCc1ccc(C(F)(F)F)cn1 [Example 56] | 4.8 (≈ 9.78 µM) | 0.8 (≈ 1.63 µM) | 204 to 206 °C | 2.57
6 | COc1c(OCc2ccc(C(F)(F)F)cn2)ccc(-c2c[nH]c(C3CCC(F)(F)CC3)n2)c1OC [Example 57] | > 99 | 0.8 (≈ 1.61 µM) | 155 to 157 °C | 3.72
7 | COc1cc(OCc2ccc(C(F)(F)F)cn2)ccc1-c1c[nH]c(C2CCCCC2)n1 [Example 77] | 8.7 (≈ 20.2 µM) | 1.3 (≈ 3.01 µM) | 226 to 228 °C | 3.11
8 | COc1ccc(-c2nc(-c3ccc(OCc4ccc(C(F)(F)F)cn4)cc3OC)c[nH]2)cn1 [Example 79] | 10.6 (≈ 23.2 µM) | 1.2 (≈ 2.63 µM) | 187 to 189 °C | 1.42
9 | COc1cc(OCc2ccc(C(F)(F)F)cn2)ccc1-c1c[nH]c(-c2cccnc2)n1 [Example 89] | 85.4 (≈ 200 µM) | 1.8 (≈ 4.22 µM) | 240 to 242 °C | 1.69
10 | COc1cc(OCc2ccncc2C(F)(F)F)ccc1-c1cnc(-c2ccc(Cl)nc2)[nH]1 [Example 100] | 15 (≈ 32.5 µM) | < 0.3 | 220 to 228 °C | 3.05
11 | COc1cc(OCc2cccnc2C(F)(F)F)ccc1-c1cnc(-c2ccc(Cl)nc2)[nH]1 [Example 108] | 4.1 (≈ 8.9 µM) | < 0.3 | 231 to 233 °C | 3.03
12 | COc1cc(OCc2ncc(C)cc2C)ccc1-c1c[nH]c(-c2ccc(F)nc2)n1 [Example 118] | 80.2 (≈ 198 µM) | 2.1 (≈ 5.19 µM) | 219 to 223 °C (dec.) | 2.91
13 | COc1cc(OCc2ncccc2C(F)(F)F)ccc1-c1c[nH]c(-c2ccc(F)nc2)n1 [Example 121] | > 89 | 1.8 (≈ 4.05 µM) | 201 to 202 °C | 3.38
14 | COc1cc(OCc2cnc(C)cn2)ccc1-c1c[nH]c(-c2ccc(F)nc2)n1 [Example 122] | 71.8 (≈ 183 µM) | 2.9 (≈ 7.41 µM) | 167 to 170 °C | 1.7

Further lines, with some results ahead:

Row | solubility at 24 h [2, 3] [µg/mL] | solubility at 24 h [2, 4] [µg/mL] | melting point | SMILES | fold induction at 10 µM [1]
15 | 8.6 (≈ 18.7 µM) | 2.3 (≈ 4.99 µM) | 147 to 150 °C | COc1cc(OCc2ccc(C(F)(F)F)cn2)ccc1-c1c[nH]c(-c2ccc(Cl)cn2)n1 [Example 42] | 2.27
16 | 11.9 (≈ 24.4 µM) | 0.7 (≈ 1.44 µM) | 232 to 235 °C (dec.) | COc1cc(OCc2ccc(S(=O)(=O)OC)cn2)ccc1-c1c[nH]c(-c2ccc(Cl)nc2)n1 [Example 44] | 1.14
17 | 22.9 (≈ 48.3 µM) | < 9.1 | 107 to 110 °C | COc1cc(-c2c[nH]c(-c3ccc(F)nc3)n2)cc(OC)c1OCc1ccc(C(F)(F)F)cn1 [Example 46] | 2.49
18 | 5.1 (≈ 12.4 µM) | 0.3 (≈ 0.73 µM) | 185 to 187 °C | COc1cc(-c2c[nH]c(-c3ccc(Cl)nc3)n2)ccc1OCc1cccc(F)n1 [Example 47] | 3.26
19 | 77.3 (≈ 174 µM) | 1.3 (≈ 2.92 µM) | 137 to 142 °C | COc1cc(OCc2ccc(C(F)(F)F)cn2)ccc1-c1c[nH]c(C2CCC(C)CC2)n1 (stereo not shown) [Example 65] | 2.89
20 | 104 (≈ 219 µM) | 2.3 (≈ 4.84 µM) | 129 to 132 °C | COc1cc(OCc2ccc(C(F)(F)F)cn2)ccc1-c1nc(-c2ccc(Cl)nc2)[nH]c1C [Example 68] | 2.45
21 | > 108 | 5.3 (≈ 13.1 µM) | 210 to 213 °C (dec.) | COc1cc(-c2c[nH]c(C3CCC3)n2)ccc1OCc1ccc(C(F)(F)F)cn1 [Example 73] | 4.07
22 | 84.9 (≈ 193 µM) | 0.4 (≈ 0.908 µM) | 203 to 205 °C | COc1cc(OCc2ccc(C(F)(F)F)cn2)ccc1-c1c[nH]c(-c2ccc(C)nc2)n1 [Example 80] | 2.01
23 | 36 (≈ 84 µM) | < 0.3 | 190 to 192 °C | COc1cc(OCc2ncc(F)cc2F)ccc1-c1cnc(-c2ccc(Cl)nc2)[nH]1 [Example 103] | 2.36
24 | 20.6 (≈ 46.3 µM) | 0.7 (≈ 1.57 µM) | 211 to 218 °C | COc1cc(OCc2ncc(Cl)cc2F)ccc1-c1cnc(-c2ccc(Cl)nc2)[nH]1 [Example 104] | 2.27
25 | 31.2 (≈ 67.7 µM) | 6.3 (≈ 13.7 µM) | 191 to 203 °C | COc1cc(OCc2cncc(C(F)(F)F)c2)ccc1-c1cnc(-c2ccc(Cl)nc2)[nH]1 [Example 106] | 2.66
26 | 11.2 (≈ 24.3 µM) | 9.6 (≈ 20.8 µM) | 174 to 223 °C | COc1cc(OCc2ccnc(C(F)(F)F)c2)ccc1-c1cnc(-c2ccc(Cl)nc2)[nH]1 [Example 107] | 2.68
27 | > 57 | 40 (≈ 140 µM) | 249 to 251 °C (dec.) | COc1cc(O)ccc1-c1c[nH]c(-c2ccc(F)nc2)n1 [Example 109, 4-[2-(6-fluoropyridin-3-yl)-1H-imidazol-5-yl]-3-methoxyphenol] | 1.76
28 | 12 (≈ 27 µM) | 2.1 (≈ 4.73 µM) | 187 to 190 °C | COc1cc(OCc2cccnc2C(F)(F)F)ccc1-c1cnc(-c2ccc(F)nc2)[nH]1 [Example 112] | 2.39
29 | 18.7 (≈ 42.1 µM) | < 1.6 | 141 to 144 °C | COc1cc(OCc2ccc(C(F)(F)F)cn2)ccc1-c1c[nH]c(-c2ccc(F)nc2)n1 [Example 124] | 2.28
30 | 87.4 (≈ 197 µM) | < 0.3 | 178 to 180 °C | COc1cc(OCc2cnccc2C(F)(F)F)ccc1-c1cnc(-c2ccc(F)nc2)[nH]1 [Example 131] | 3.66
31 | 5.9 (≈ 12.3 µM) | < 0.3 | 185 to 187 °C | COc1cc(OCc2ncc(C(F)(F)F)cc2Cl)ccc1-c1cnc(-c2ccc(F)nc2)[nH]1 [Example 132] | 2.77
